The values below come from patent US20230167073A1 (Teijin Pharma Limited, priority 2020, published 2023).

One assay addresses T1, Human TRPC6 (Homo sapiens, UniProt Q9Y210).
T1 construct: expressed in transfected cells
T1 sequence (Q9Y210 1-931): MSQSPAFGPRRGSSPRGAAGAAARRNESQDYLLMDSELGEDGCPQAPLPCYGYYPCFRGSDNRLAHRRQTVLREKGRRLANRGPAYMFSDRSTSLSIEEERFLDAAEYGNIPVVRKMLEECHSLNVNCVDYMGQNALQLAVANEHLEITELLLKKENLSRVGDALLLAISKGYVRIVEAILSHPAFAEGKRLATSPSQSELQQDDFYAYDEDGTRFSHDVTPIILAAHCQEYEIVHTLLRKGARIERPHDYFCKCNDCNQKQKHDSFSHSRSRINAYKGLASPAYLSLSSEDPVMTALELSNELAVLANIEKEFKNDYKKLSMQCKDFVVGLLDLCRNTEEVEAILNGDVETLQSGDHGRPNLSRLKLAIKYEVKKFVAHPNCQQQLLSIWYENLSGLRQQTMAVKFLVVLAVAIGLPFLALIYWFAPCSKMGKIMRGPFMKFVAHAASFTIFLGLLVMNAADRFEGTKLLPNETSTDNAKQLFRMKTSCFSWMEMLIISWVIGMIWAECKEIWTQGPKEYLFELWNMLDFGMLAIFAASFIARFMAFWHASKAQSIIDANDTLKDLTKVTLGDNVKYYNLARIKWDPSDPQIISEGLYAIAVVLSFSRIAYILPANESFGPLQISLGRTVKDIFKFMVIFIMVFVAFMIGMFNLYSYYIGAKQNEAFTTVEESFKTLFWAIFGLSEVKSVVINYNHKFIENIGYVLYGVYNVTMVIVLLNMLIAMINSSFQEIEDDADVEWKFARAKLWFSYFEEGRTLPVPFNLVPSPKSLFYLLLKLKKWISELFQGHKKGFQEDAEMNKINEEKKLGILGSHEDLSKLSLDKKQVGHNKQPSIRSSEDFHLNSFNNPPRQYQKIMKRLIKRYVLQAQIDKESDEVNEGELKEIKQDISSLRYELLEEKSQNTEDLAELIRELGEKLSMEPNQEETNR
Briefly: Evaluation of TRPC6 channel inhibitory activity (1), FLIPR Calcium 5 Assay Kit, OAG stimulation (Compound Nos. 1-1293). Format: cell-based.
Settings: not given
A digest of the protocol:
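Readout is pIC50 from four-parameter logistic fitting of inhibition of the OAG-evoked (30 μM final) fluorescence calcium signal. Human TRPC6 stable cells are dye-loaded with probenecid, and compound is applied 20 min ahead of agonist.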
As to `Cn1nc(N2C3CCC2COC3)cc1Oc1cc(C#N)ccc1-c1ncc(CN)cn1` [compound 944, 4-[5-(aminomethyl)pyrimidin-2-yl]-3-[2-methyl-5-(3-oxa-8-azabicyclo[3.2.1]octan-8-yl)pyrazol-3-yl]oxybenzonitrile], the IC50 is 10 to 1000 nM.

The same assay, now with this note: Human TRPC6 stably-expressing cells, OAG 30 μM, FLIPR Calcium 5 Assay Kit; read-out: Inhibitory activity (pIC50 class) (converted).
For the compound `Cn1nc(C(F)(F)F)cc1Oc1cc(C#N)ccc1-c1ncc([C@@H](F)CN)cn1` [compound 904, 4-[5-[(1R)-2-amino-1-fluoroethyl]pyrimidin-2-yl]-3-[2-methyl-5-(trifluoromethyl)pyrazol-3-yl]oxybenzonitrile], the IC50 is < 10 nM.

For `Cn1nc(C2CC2)cc1Oc1cc(C#N)ccc1-c1cc(C(=O)N2CCC[C@H](N)C2)cn2ccnc12` [compound 756, 4-[6-[(3S)-3-aminopiperidine-1-carbonyl]imidazo[1,2-a]pyridin-8-yl]-3-(5-cyclopropyl-2-methylpyrazol-3-yl)oxybenzonitrile], the IC50 was > 1000 nM.

Turning to `CCN(CC)C(=O)C(N)c1ccc(-c2ccc(C#N)cc2Oc2cc(C3CC3)nn2C)nc1` (stereo not drawn) [compound 488, 2-amino-2-[6-[4-cyano-2-(5-cyclopropyl-2-methylpyrazol-3-yl)oxyphenyl]pyridin-3-yl]-N,N-diethylacetamide], the IC50 is > 1000 nM.

In the case of `Cc1sc(N2CCOCC2)nc1C(=O)c1cc(C#N)ccc1-c1ncc(CN)cn1` [compound 1069, 4-[5-(aminomethyl)pyrimidin-2-yl]-3-(5-methyl-2-morpholin-4-yl-1,3-thiazole-4-carbonyl)benzonitrile], the IC50 was > 1000 nM.

Consider `Cc1cc(Oc2cc(C#N)ccc2-c2nccc(CN)n2)cc(N2CCOCC2)n1` [compound 681, 4-[4-(aminomethyl)pyrimidin-2-yl]-3-(2-methyl-6-morpholin-4-ylpyridin-4-yl)oxybenzonitrile], for which the IC50 was > 1000 nM.

`Cn1nc(C2CC2)cc1Oc1cc(C#N)ccc1-c1cccc(CCN)n1` [compound 481, 4-[6-(2-aminoethyl)pyridin-2-yl]-3-(5-cyclopropyl-2-methylpyrazol-3-yl)oxybenzonitrile]: the IC50 was > 1000 nM.

For `Cc1nc(Oc2cc(C#N)ccc2-c2nc(C)c(C(O)CN)s2)cc(-c2ccccc2)n1` (stereo not drawn) [Compound 71, 4-[5-(2-amino-1-hydroxyethyl)-4-methyl-1,3-thiazol-2-yl]-3-(2-methyl-6-phenylpyrimidin-4-yl)oxybenzonitrile], the IC50 is 10 to 1000 nM.

In the case of `Cc1c(Oc2cc(C#N)ccc2-c2ncc(CCN)cn2)cnn1CC(C)C` [compound 804, 4-[5-(2-aminoethyl)pyrimidin-2-yl]-3-[5-methyl-1-(2-methylpropyl)pyrazol-4-yl]oxybenzonitrile], the IC50 is 10 to 1000 nM.

Turning to `Cc1nc(Oc2cc(C#N)ccc2-c2ccc3c(c2)CCC3N)cc(N2CCOCC2)n1` (stereo not drawn) [Compound 132, 4-(1-amino-2,3-dihydro-1H-inden-5-yl)-3-(2-methyl-6-morpholin-4-ylpyrimidin-4-yl)oxybenzonitrile], the IC50 was 10 to 1000 nM.

`COCCCNCCc1ccc(-c2ccc(C#N)cc2Oc2cc(N3CCOCC3)nc(C)n2)cc1` [Compound 57, 4-[4-[2-(3-methoxypropylamino)ethyl]phenyl]-3-(2-methyl-6-morpholin-4-ylpyrimidin-4-yl)oxybenzonitrile]: the IC50 was > 1000 nM.

As for `CC(C)n1nc(C2CC2)cc1Oc1cc(C#N)ccc1-c1ccc([C@H](O)CN)cn1` [compound 407, 4-[5-[(1S)-2-amino-1-hydroxyethyl]pyridin-2-yl]-3-(5-cyclopropyl-2-propan-2-ylpyrazol-3-yl)oxybenzonitrile], the IC50 is < 10 nM.

In the case of `Cc1nc(NC(C)C)cc(Oc2cc(C#N)ccc2-c2ncc(CN)cn2)n1` [compound 630, 4-[5-(aminomethyl)pyrimidin-2-yl]-3-[2-methyl-6-(propan-2-ylamino)pyrimidin-4 yl]oxybenzonitrile], the IC50 is 10 to 1000 nM.

On to `Cn1nc(-c2ccc(Cl)cc2)cc1Oc1cc(C#N)ccc1-c1ccc([C@@H](O)CN)cn1` [compound 377, 4-[5-[(1R)-2-amino-1-hydroxyethyl]pyridin-2-yl]-3-[5-(4-chlorophenyl)-2-methylpyrazol-3-yl]oxybenzonitrile], for which the IC50 is 10 to 1000 nM.

`N#Cc1ccc(-c2ncc(CN)cn2)c(C(=O)c2cnn(C3CCOCC3)c2)c1` [compound 1056, 4-[5-(aminomethyl)pyrimidin-2-yl]-3-[1-(oxan-4-yl)pyrazole-4-carbonyl]benzonitrile]: the IC50 was 10 to 1000 nM.

Consider `Cc1ccc(-c2cc(Oc3cc(C#N)ccc3-c3ccc(CCN)nc3)nc(C)n2)nc1` [Compound 189, 4-[6-(2-aminoethyl)pyridin-3-yl]-3-[2-methyl-6-(5-methylpyridin-2-yl)pyrimidin-4-yl]oxybenzonitrile], for which the IC50 was > 1000 nM.

In the case of `Cn1nc(-c2cnccn2)cc1Oc1cc(C#N)ccc1-c1ncc(CCN)cn1` [compound 950, 4-[5-(2-aminoethyl)pyrimidin-2-yl]-3-(2-methyl-5-pyrazin-2-ylpyrazol-3-yl)oxybenzonitrile], the IC50 was < 10 nM.

On to `CC(C)Nc1cc(Oc2cc(C#N)ccc2-c2ccc([C@H](O)CN)cn2)n(C)n1` [compound 549, 4-[5-[(1S)-2-amino-1-hydroxyethyl]pyridin-2-yl]-3-[2-methyl-5-(propan-2-ylamino)pyrazol-3-yl]oxybenzonitrile], for which the IC50 was 10 to 1000 nM.

With `Cc1nc(Oc2cc(C#N)ccc2-c2ccc(CCN)nc2)cc(-c2cccnc2)n1` [Compound 188, 4-[6-(2-aminoethyl)pyridin-3-yl]-3-(2-methyl-6-pyridin-3-ylpyrimidin-4-yl)oxybenzonitrile], the IC50 was > 1000 nM.

Turning to `Cc1cc(Oc2cc(C#N)ccc2-c2ccc(C(N)C(=O)O)cn2)cc(N2CCOCC2)n1` (stereo not drawn) [compound 410, 2-amino-2-[6-[4-cyano-2-(2-methyl-6-morpholin-4-ylpyridin-4-yl)oxyphenyl]pyridin-3-yl]acetic acid], the IC50 was 10 to 1000 nM.

Regarding `Cc1cc(Oc2cc(C#N)ccc2-c2ncc(CN)cn2)cc(NC(C)C)n1` [compound 644, 4-[5-(aminomethyl)pyrimidin-2-yl]-3-[2-methyl-6-(propan-2-ylamino)pyridin-4-yl]oxybenzonitrile], the IC50 is < 10 nM.

As for `N#Cc1ccc(-c2ccc(CCN)cn2)c(Oc2cnnc(Cl)c2)c1` [Compound 87, 4-[5-(2-aminoethyl)pyridin-2-yl]-3-(6-chloropyridazin-4-yl)oxybenzonitrile], the IC50 was > 1000 nM.

Turning to `Cn1nc(C2CCOCC2)cc1Oc1cc(F)ccc1-c1ccc(CN)cn1` [compound 1008, [6-[4-fluoro-2-[2-methyl-5-(oxan-4-yl)pyrazol-3-yl]oxyphenyl]pyridin-3-yl]methanamine], the IC50 was 10 to 1000 nM.

In the case of `Cn1nc(N2CCCC2)cc1Oc1cc(F)ccc1-c1ccc(CCN)cn1` [compound 980, 2-[6-[4-fluoro-2-(2-methyl-5-pyrrolidin-1-ylpyrazol-3-yl)oxyphenyl]pyridin-3-yl]ethanamine], the IC50 was < 10 nM.

On to `Cn1nc(C2CC2)cc1Oc1cc(C#N)ccc1-c1ccc(N2CC[C@@H](F)[C@H](N)C2)cn1` [compound 869, 4-[5-[(4R)-3-amino-4-fluoropiperidin-1-yl]pyridin-2-yl]-3-(5-cyclopropyl-2-methylpyrazol-3-yl)oxybenzonitrile], for which the IC50 is > 1000 nM.

In the case of `Cc1nc(OCC2CCC2)cc(Oc2cc(C#N)ccc2-c2ccc(CCN)cc2)n1` [Compound 43, 4-[4-(2-aminoethyl)phenyl]-3-[6-(cyclobutylmethoxy)-2-methylpyrimidin-4-yl]oxybenzonitrile], the IC50 was 10 to 1000 nM.

Consider `CCc1cc(Oc2cc(C#N)ccc2-c2ccc(CN)nc2)n(C)n1` [compound 330, 4-[6-(aminomethyl)pyridin-3-yl]-3-(5-ethyl-2-methylpyrazol-3-yl)oxybenzonitrile], for which the IC50 is > 1000 nM.

In the case of `Cn1nc(N2CCCC2)cc1Oc1cc(F)ccc1-c1ncc(CCN)cn1` [compound 979, 2-[2-[4-fluoro-2-(2-methyl-5-pyrrolidin-1-ylpyrazol-3-yl)oxyphenyl]pyrimidin-5-yl]ethanamine], the IC50 was < 10 nM.

Take `N#Cc1ccc(-c2ncc(CN)cn2)c(Sc2nnc(N3CCCCC3)s2)c1` [compound 1269, 4-[5-(aminomethyl)pyrimidin-2-yl]-3-[(5-piperidin-1-yl-1,3,4-thiadiazol-2-yl)sulfanyl]benzonitrile]: the IC50 was > 1000 nM.

Turning to `CC(C)CNc1cc(Oc2cc(C#N)ccc2-c2ncc(CN)cn2)cnn1` [compound 765, 4-[5-(aminomethyl)pyrimidin-2-yl]-3-[6-(2-methylpropylamino)pyridazin-4-yl]oxybenzonitrile], the IC50 was < 10 nM.
